Laboratory results: article PMC10481364 (The Journal of Biological Chemistry, 2023)
Several values for one entry are separate records, joined by “and”; a condition that tells them apart may be missing. Identical values can stand only once.

Experiments:
CYP2D6 = CYP2D6 (Homo sapiens, UniProt P10635); assay: UV-visible spectral ligand binding assay, isolated CYP2D6; settings: difference spectra
FMND/CYP2D6 = assay type: binding, human; settings: difference spectra, FMND/CYP2D6 fusion, FMN domain oxidized
FMND/CYP21A2 [1] = target: T1, FMND/CYP21A2 (Homo sapiens, UniProt P08686+P16435, R103K); assay type: biochemical; settings: progesterone 21-hydroxylation, cumene hydroperoxide, FMND/CYP21A2 vs CYP21A2
T1 sequence (P16435+P08686 with tags, fused parts or gaps P08686:R103K): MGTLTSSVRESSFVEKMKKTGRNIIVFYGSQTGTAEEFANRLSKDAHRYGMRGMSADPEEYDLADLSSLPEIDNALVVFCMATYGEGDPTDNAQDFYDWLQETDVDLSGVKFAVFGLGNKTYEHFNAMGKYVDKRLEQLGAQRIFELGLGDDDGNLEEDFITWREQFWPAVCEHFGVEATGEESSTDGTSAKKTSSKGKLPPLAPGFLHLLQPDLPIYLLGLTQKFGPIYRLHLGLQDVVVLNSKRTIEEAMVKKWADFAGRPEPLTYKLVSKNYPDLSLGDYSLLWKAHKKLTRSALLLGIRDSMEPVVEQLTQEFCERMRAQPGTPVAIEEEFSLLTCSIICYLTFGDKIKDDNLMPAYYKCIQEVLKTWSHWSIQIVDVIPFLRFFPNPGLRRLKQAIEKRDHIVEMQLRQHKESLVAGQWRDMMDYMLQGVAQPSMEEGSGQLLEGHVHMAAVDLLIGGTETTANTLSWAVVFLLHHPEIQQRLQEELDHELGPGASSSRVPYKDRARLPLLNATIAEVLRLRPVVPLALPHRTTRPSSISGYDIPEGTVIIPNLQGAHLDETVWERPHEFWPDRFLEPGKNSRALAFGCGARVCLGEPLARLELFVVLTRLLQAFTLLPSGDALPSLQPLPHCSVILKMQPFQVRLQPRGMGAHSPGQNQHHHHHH

CYP21A2 = target: T2, CYP21A2 (Homo sapiens, UniProt P08686, R103K); assay: UV-visible spectral ligand binding assay, isolated CYP21A2; settings: difference spectra
T2 sequence (P08686 with tags, fused parts or gaps R103K limits assumed): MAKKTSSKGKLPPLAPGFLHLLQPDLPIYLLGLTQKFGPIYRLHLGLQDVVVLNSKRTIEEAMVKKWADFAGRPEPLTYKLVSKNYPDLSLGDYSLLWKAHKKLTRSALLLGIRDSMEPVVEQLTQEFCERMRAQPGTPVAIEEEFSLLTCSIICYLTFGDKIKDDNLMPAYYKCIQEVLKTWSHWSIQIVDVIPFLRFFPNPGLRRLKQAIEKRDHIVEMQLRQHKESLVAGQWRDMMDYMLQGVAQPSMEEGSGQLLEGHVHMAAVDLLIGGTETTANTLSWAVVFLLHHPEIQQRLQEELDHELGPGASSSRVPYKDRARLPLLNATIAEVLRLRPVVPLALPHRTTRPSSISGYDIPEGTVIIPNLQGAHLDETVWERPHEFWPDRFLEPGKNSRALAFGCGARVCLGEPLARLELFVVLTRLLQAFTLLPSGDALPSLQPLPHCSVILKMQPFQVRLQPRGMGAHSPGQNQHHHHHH

FMND/CYP17A1 [2] = target: T3, FMND/CYP17A1 (Homo sapiens, UniProt P05093+P16435); assay type: biochemical; settings: progesterone 17α-hydroxylation, cumene hydroperoxide
T3 sequence (P16435+P05093 with tags, fused parts or gaps): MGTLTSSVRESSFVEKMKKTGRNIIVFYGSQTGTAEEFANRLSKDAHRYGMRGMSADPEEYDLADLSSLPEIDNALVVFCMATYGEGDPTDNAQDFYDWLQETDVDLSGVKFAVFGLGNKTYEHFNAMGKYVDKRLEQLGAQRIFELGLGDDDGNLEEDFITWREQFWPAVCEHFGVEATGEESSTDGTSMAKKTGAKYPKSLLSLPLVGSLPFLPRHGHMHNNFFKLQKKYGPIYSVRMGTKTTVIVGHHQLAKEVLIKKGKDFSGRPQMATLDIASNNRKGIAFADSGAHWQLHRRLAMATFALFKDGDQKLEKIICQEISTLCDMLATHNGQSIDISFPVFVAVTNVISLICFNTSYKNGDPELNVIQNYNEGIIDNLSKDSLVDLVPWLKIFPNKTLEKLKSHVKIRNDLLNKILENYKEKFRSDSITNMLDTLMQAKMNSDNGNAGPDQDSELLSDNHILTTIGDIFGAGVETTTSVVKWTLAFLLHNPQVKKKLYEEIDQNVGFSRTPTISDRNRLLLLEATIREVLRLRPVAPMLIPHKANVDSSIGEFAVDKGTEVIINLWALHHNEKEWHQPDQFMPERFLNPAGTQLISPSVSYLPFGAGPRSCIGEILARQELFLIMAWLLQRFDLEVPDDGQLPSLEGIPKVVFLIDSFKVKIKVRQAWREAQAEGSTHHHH

CYP17A1 = target: T4, CYP17A1 (Homo sapiens, UniProt P05093); assay: UV-visible spectral ligand binding assay, isolated CYP17A1; settings: difference spectra
T4 sequence (P05093 with tags, fused parts or gaps): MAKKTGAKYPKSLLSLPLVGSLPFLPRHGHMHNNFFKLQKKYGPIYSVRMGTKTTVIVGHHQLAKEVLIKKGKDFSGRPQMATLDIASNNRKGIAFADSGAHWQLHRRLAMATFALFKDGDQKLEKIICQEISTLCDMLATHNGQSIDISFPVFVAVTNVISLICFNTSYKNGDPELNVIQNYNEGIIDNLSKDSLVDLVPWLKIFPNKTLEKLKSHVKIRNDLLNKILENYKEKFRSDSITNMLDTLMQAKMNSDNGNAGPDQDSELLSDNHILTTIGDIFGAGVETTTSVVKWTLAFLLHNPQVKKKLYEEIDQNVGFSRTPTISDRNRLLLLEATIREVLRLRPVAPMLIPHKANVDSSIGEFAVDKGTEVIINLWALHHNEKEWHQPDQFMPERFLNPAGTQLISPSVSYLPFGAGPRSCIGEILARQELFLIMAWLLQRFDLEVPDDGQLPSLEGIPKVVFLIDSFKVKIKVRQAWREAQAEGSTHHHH

FMND/CYP21A2 [3] = target: T1, FMND/CYP21A2; assay type: binding
FMND/CYP17A1 [4] = target: T3, FMND/CYP17A1; assay type: binding
[5] = FMND/CYP21A2 compared with CYP21A2
[6] = FMND/CYP17A1 compared with CYP17A1

| SMILES | spectral shift (binding mode) (CYP2D6) | spectral shift (binding mode) (FMND/CYP2D6) | effect on catalytic efficiency, in words (FMND/CYP21A2 [1]) | increase in kcat by FMN domain fusion (FMND/CYP21A2 [1]) | spectral shift (binding mode) (CYP21A2) | steady-state kinetics, saturation (FMND/CYP17A1 [2]; CYP17A1 and FMND/CYP17A1) | trend of the FMN domain effect on kcat and Km, in words (FMND/CYP17A1 [2]; FMND/CYP17A1 vs CYP17A1, poorly defined) | spectral shift (binding mode) (CYP17A1) | decrease in total / maximal absorbance change (ΔAmax) by FMN domain fusion (FMND/CYP21A2 [3]; [5]) | effect of FMN domain fusion on the affinity, in words (FMND/CYP21A2 [3]; [5]) | spectral shift (binding mode) (FMND/CYP21A2 [3]; difference spectra, FMND/CYP21A2 fusion, FMN domain oxidized) | increase in affinity by FMN domain fusion (FMND/CYP17A1 [4]; [6]) | increase in overall binding efficiency (ΔAmax/Kd) by FMN domain fusion (FMND/CYP17A1 [4]; [6]) | spectral shift (binding mode) (FMND/CYP17A1 [4]; difference spectra, FMND/CYP17A1 fusion, FMN domain oxidized) |
| --- | --- | --- | --- | --- | --- | --- | --- | --- | --- | --- | --- | --- | --- | --- |
| CC1(C)SCCN(S(=O)(=O)c2ccc(Oc3ccncc3)cc2)[C@H]1C(=O)NO [prinomastat] | type II | type II | – | – | – | – | – | – | – | – | – | – | – | – |
| CC(=O)[C@H]1CC[C@H]2[C@@H]3CCC4=CC(=O)CC[C@]4(C)[C@H]3CC[C@]12C [progesterone] | – | – | unchanged | 17% | type I | saturation could not be reached | increase kcat as well as Km | type I | 31% and 30% | without substantially altering | type I | 17% | 38% | type I |
